Source: patent US7799788B2, “Method of treating chronic myelogenous leukemia cells” (University of South Florida, priority 2006, dated 2010)

Columns and labels:
K562 cells = assay: Apoptosis by Annexin-V staining (flow cytometry), K562 cells; assay type: cell-based, human; details: 10 nM dasatinib, 48 hours
Description: Untreated or drug-treated cells were stained with Annexin-V (Pharmingen, San Diego, Calif.) and propidium iodide (PI) and the percentage of apoptotic cells were determined by flow cytometry. […] The percentage of apoptotic cells was determined by flow cytometry. The combination index (CI) for each drug combination was obtained by median dose effect of Chou and Talalay utilizing the combination index equation within the commercially available software Calcusyn (Biosoft, Ferguson, Mo.).

LAMA-84 cells = assay: Apoptosis by Annexin-V staining (flow cytometry), LAMA-84 cells; assay type: cell-based, human; details: 10 nM dasatinib, 48 hours
Description: FIG. 1D. […] Following treatment, the percentages of annexin-V-stained apoptotic cells were measured by flow cytometry. Values represent the mean of three experiments±S.E.M.
Bcr-Abl-expressing, CML LAMA-84 and K562 cells were obtained and maintained in culture, as previously described. […] Following these treatments, cells or cell pellets were washed free of the drug(s) prior to the performance of the studies.

[1] = system: normal bone marrow progenitor cells (NBMC's); assay: Loss of survival of normal bone marrow progenitor cells; assay type: cell-based
[2] = system: primary IM-resistant CML cells; assay: Percentage non-viable cells by trypan blue uptake, primary IM-resistant CML-BC cells; assay type: cell-based, human; details: 48 hours
Description: FIG. 6. […] Following this, the percentages of non-viable cells for each drug alone or drug combination were determined by trypan blue uptake in hemocytometer. Values represent the percentage of non-viable cells from each condition as compared to untreated cells.
Primary CML cells. CML cells from the peripheral blood and/or bone marrow of eleven patients who had met the clinical criteria of IM-resistant advanced phase of CML were harvested and purified, as previously described. Informed consents were signed by all patients to allow use of their cells for these experiments, as part of a clinical protocol approved by the University of South Florida Institutional Review Board (IRB).
Cells were stained with trypan blue (Sigma, St. Louis, Mo.).

BaF3/Bcr-AblE255K cells = assay: Apoptosis by Annexin-V staining, BaF3/Bcr-AblE255K cells; details: 2.0 μM vorinostat, 48 hours
Description: After treatment, the percentage of Annexin-V-stained apoptotic cells was determined by flow cytometry.
BaF3/Bcr-Abl, BaF3/Bcr-AblE255K, and BaF3/Bcr-AblT315I cells were treated with the indicated concentrations of vorinostat for 48 hours. After treatment, the percentage of Annexin-V-stained apoptotic cells was determined by flow cytometry.
Following treatment, the percentage of annexin-V-stained apoptotic cells was determined by flow cytometry.
Stably expressing cells were then further selected by removal of IL-3.
Untreated or drug-treated cells were stained with Annexin-V (Pharmingen, San Diego, Calif.) and propidium iodide (PI) and the percentage of apoptotic cells were determined by flow cytometry. […] The percentage of apoptotic cells was determined by flow cytometry.

| SMILES | apoptosis of K562 cells (K562 cells) [%] | apoptosis of LAMA-84 cells (LAMA-84 cells) | effect on NBMC ([1]; dasatinib up to 20 nM) | loss of cell viability, samples #1 to #9 ([2]; IM-resistant primary CML cells, mutational status not determined) | loss of survival of NBMC ([1]; 2.0 μM vorinostat, mean of 2 samples) [%] | loss of cell viability, all samples including #10 and #11 ([2]; 2.0 μM vorinostat alone) | apoptosis of BaF3/Bcr-AblE255K cells (BaF3/Bcr-AblE255K cells) |
| --- | --- | --- | --- | --- | --- | --- | --- |
| Cc1nc(Nc2ncc(C(=O)Nc3c(C)cccc3Cl)s2)cc(N2CCN(CCO)CC2)n1 [dasatinib, N-(2-chloro-6-methylphenyl)-2-[[6-[4-(2-hydroxyethyl)-1-piperazinyl]-2-methyl-4-pyrimidinyl]amino]-5-thiazolecarboxamide] | ~50 | approximately 90% | no effect | induced loss of cell viability in a dose dependent manner | – | – | – |
| O=C(CCCCCCC(=O)Nc1ccccc1)NO [vorinostat, suberoylanilide hydroxamic acid] | – | – | – | – | 15.9 | induced loss of cell viability in all of the samples | approximately 40% |
